Laboratory results taken from paper PMC4593522, “Development of a Radiolabeled Peptide-Based Probe Targeting MT1-MMP for Breast Cancer Detection” (PLoS ONE, 2015).
Square brackets hold non-standard residues; d marks the D form. Peptide text beside a SMILES is read from it. * marks the point of attachment. HYNIC = NNc1ccc(C(=O)*)cn1; AEEA = NCCOCCOCC(=O)O

Columns and labels:
[1] = Partition coefficient (Log P), n-octanol / phosphate buffer; assay type: physicochemical; details: shake-flask, equal volume mixture of n-octanol and phosphate buffer (25 mM, pH = 7.4); mean ± SD
Method: [^99mTc]-(HYNIC-AF7P)(tricine)(TPPTS) was prepared in two steps. First, HYNIC-AF7P was synthesized (Fig 1) and reacted with Na^99mTcO4 in the presence of excess tricine and SnCl2 to form the intermediate [^99mTc]-(HYNIC-AF7P)(tricine)2, which was then allowed to react with TPPTS to form the ternary ligand complex [^99mTc](HYNIC-AF7P)(tricine)(TPPTS). […] The HPLC retention time was 9.2 min for [^99mTc](HYNIC-AF7P)(tricine)(TPPTS) and the specific activity of final product was 1200 mCi/μmol. The partition coefficient of [^99mTc]-(HYNIC-AF7P)(tricine)(TPPTS) was determined in an equal volume mixture of noctanoland phosphate buffer (25 mM, pH = 7.4). Log P value of [^99mTc]-(HYNIC-AF7P)(tricine)(TPPTS)was -2.39±0.06.

[2] = In vitro solution stability in saline (radio-HPLC); assay type: physicochemical; details: 0.9% physiological saline, 37°C, 100 μL tracer in 400 μL total, mean ± SD
Method: HYNIC-AF7p solution (20 μL, 60 μg/mL in H2O), of tricine solution (100 μL, 100 mg/mL in 25 mM succinate buffer, pH 5.0), SnCl2 solution (10 μL, 3 mg/mL in 0.1 M HCl) and Na^99mTcO4 (100 μL, 370 MBq) in saline were added into a 5 mL Eppendorf tube. The reaction mixture was kept at room temperature for 10 min. To the reaction mixture above was added 100 μL of the TPPTS solution (50 mg/mL in 25 mM succinate buffer, pH 5.0). The vial containing the reaction mixture was sealed, cramped, and heated at 90°C for 30 min. After cooling to room temperature, sample was analyzed by radio-HPLC. The radio-HPLC method used a HP Hewlett Packard Series 1100 HPLC system equipped with a Radioflow Detector LB509 and a reversed-phase Zorbax SB-C18 column (4.6 mm × 250 mm, 5 μm). The flow rate was 1 mL/min. The gradient mobile phase started with 90% solvent A (0.1% TFA in water) and 10% solvent B (0.1% TFA in acetonitrile) to 30% solvent A and 70% solvent B at 24 min to 0% solvent A and 100% solvent B at 27 min, followed with 90% solvent A and 10% solvent B at 30 min. […]
100 μL of [^99mTc]-(HYNIC-AF7P)(tricine)(TPPTS) was added to either 0.9% physiological saline or 1 mg/mL cysteine solution. […] After 1 h, 2 h, 3 h, 4 h, 5 h and 6 h incubation, the radiochemical purity for [^99mTc]-(HYNIC-AF7P)(tricine)(TPPTS) at each time point was detected by radio-HPLC as described above.

[3] = system: MT1-MMP-positive MDA-MB-231 tumor; test: SPECT imaging of MDA-MB-231 tumor-bearing mice; assay type: in vivo; details: mean ± SD; for tumor uptake (SPECT ROI), blocking: 200 μg unlabeled AF7P injected 30 min ahead of tracer; for tumor uptake (SPECT ROI), unblocked: i.v.
Method: (§1) All animal experiments were approved by Jilin University Health Science Center Animal Care and Use Committee. Human breast carcinoma cell line MDA-MB-231 with high MT1-MMP expression and human lung adenocarcinomaepithelial cell line A549 with low MT1-MMP expression were cultured in DMEM medium containing 10% (v/v) fetal bovine serum (Invitrogen) supplemented with penicillin (100 μg/mL) and streptomycin (100 μg/mL) at 37°C with 5% CO2. MDA-MB-231 and A549 tumor models were established by subcutaneous injection of 5×10^6 cells into the upper right front flank of female athymic nude mice (Department of Experimental Animal, Peking University Health Science Center). Tumor growth was monitored by caliper measurements three times a week after the tumors are palpable. The mice were used for SPET/CT imaging when the tumor volume reached about 200 mm3 (about 14 days after tumor inoculations). The tumor volume was determined as the formula: V = a × (b^2)/2, where a and b are the length and width of each tumor in mm respectively. During the injection and image acquisition process, the mice were anesthetized with 2.5% isoflurane in oxygen delivered at a flow rate of 1.5 L/min.
(§2) The imaging study was performed using the female BALB/c nude mice bearing the MDA-MB-231 tumors and A549 tumors. Each tumor-bearing mouse was administered intravenously with [^99mTc]-(HYNIC-AF7P)(tricine)(TPPTS) (22.2 MBq/mice) in 0.1 mL saline. For blocking test, 200 μg free AF7P was intravenously injected into MDA-MB-231 tumor bearing mice 30 min before [^99mTc]-(HYNIC-AF7P)(tricine)(TPPTS) was injected. Animals were placed prone on a two-head γ-camera (SIEMENS, E. CAM) equipped with a parallel-hole, low-energy, and high-resolution collimator. Posterior images were acquired at 0.5, 2 and 4 hours post injection (p.i.). The acquisition count limits were set at 700k. After completion of imaging, animals were sacrificed by cervical dislocation.

[4] = system: A549 tumor (little MT1-MMP); test: SPECT imaging of A549 tumor-bearing mice; assay type: in vivo; details: i.v., A549 tumor bearing model, mean ± SD
Method: as §1, §2

CC(C)C[C@H](NC(=O)[C@H](Cc1ccccc1)NC(=O)[C@@H](NC(=O)[C@H](CCCCN)NC(=O)[C@@H](NC(=O)[C@H](CC(N)=O)NC(=O)[C@H](Cc1c[nH]cn1)NC(=O)[C@H](CC(C)C)NC(=O)[C@H](Cc1c[nH]cn1)NC(=O)[C@H](CCCCN)NC(=O)[C@H](Cc1c[nH]c2ccccc12)NC(=O)[C@H](Cc1c[nH]cn1)NC(=O)c1ccc(NN)nc1)[C@@H](C)O)[C@@H](C)O)C(=O)NCCOCCOCC(=O)O [[^99mTc]-(HYNIC-AF7P)(tricine)(TPPTS), metal not drawn] ({HYNIC}-HWKHLHNTKTFL[AEEA]-OH)
Log P value (partition coefficient) [1]: -2.39±0.06
original form (radiochemical purity) in saline ([2]; after 6 hours incubation): 93.5 ± 2.27%
original form (radiochemical purity) in saline ([2]; at the beginning): 96.8 ± 1.12%
tumor uptake (SPECT ROI), blocking ([3]; 0.5 h p.i.): 1.15±0.05 %ID/g
tumor uptake (SPECT ROI), unblocked ([3]; 0.5 h p.i.): 4.15±0.27 %ID/g
tumor uptake (SPECT ROI), blocking ([3]; 2 h p.i.): 1.05±0.12 %ID/g
tumor uptake (SPECT ROI), unblocked ([3]; 2 h p.i.): 2.58±0.21 %ID/g
tumor uptake (SPECT ROI), blocking ([3]; 4 h p.i.): 1.03±0.34 %ID/g
tumor uptake (SPECT ROI), unblocked ([3]; 4 h p.i.): 1.59±0.11 %ID/g
tumor uptake (SPECT ROI), A549 tumor ([4]; 0.5 h p.i.): 1.35±0.11 %ID/g
tumor uptake (SPECT ROI), A549 tumor ([4]; 4 h p.i.): 1.01± 0.00 %ID/g
tumor uptake (SPECT ROI), A549 tumor ([4]; time point not printed (between 0.5 h and 4 h)): 1.03±0.05 %ID/g
